Patent publication US9133163B2, “Dihydropyrazole GPR40 modulators” (Bristol-Myers Squibb Company, priority 2012, dated 2015)

Key:
hGPR40 [1] = biological target: T1, hGPR40 (Homo sapiens, UniProt O14842); assay: GPR40 IP-One HTRF assay in HEK293/GPR40 inducible cell lines; assay type: cell-based; design: expressed in transfected cells; details: HEK293 cells with tetracycline-inducible human GPR40; read-out: hGPR40 IP1 EC50
Procedure: GPR40 IP-One HTRF Assays in HEK293/GPR40 Inducible Cell Lines
Human, mouse and rat GPR40-mediated intracellular IP-One HTRF assays were established using human embryonic kidney HEK293 cells stably transfected with a tetracycline-inducible human, mouse or rat GPR40 receptor. Cells were routinely cultured in growth medium containing DMEM (Gibco Cat. #12430-047), 10% qualified FBS (Sigma, Cat. #F2442), 200 μg/ml hygromycin (Invitrogen, Cat. #16087-010) and 1.5 μg/ml blasticidin (Invitrogen, Cat. #R210-01). About 12-15 million cells were passed into a T175 tissue culture flask (BD FALCON® 353112) with growth medium and incubated for 16-18 hours (overnight) at 370 C with 5% CO2. The next day, assay medium was exchanged with growth medium containing 1000 ng/mL of tetracycline (Fluka Analytical, Cat. #87128) to induce GPR40 expression for 18-24 hours at […] incubator with 5% CO2. After induction, the cells were washed with PBS (Gibco, Cat. #14190-036) and detached with Cell Stripper (CELLGRO®, Cat. #25-056-CL). 10-20 mL growth medium were added to the flask and cells were collected in 50 mL tubes (FALCON®, Cat. #352098) and spun at 1000 RPM for 5 minutes. Culture medium was aspirated and the cells were resuspended in 10 mL of 1× IP-One Stimulation Buffer from the Cisbio IP-One kit (Cisbio, Cat. #62IPAPEJ). The cells were diluted to 1.4×10^6 cells/mL in Stimulation Buffer.
Test compounds were 3-fold, 11-point serially diluted in DMSO in a REMP assay plate (Matrix Cat. #4307) by BIOCEL® (Agilent). The compounds were transferred into an Echo plate (LABCYTE, Cat. #LP-0200) and […] of diluted compounds were transferred to an assay plate (proxi-plate from Perkin Elmer, Cat. #6008289) by Echo acoustic nano dispenser (LABCYTE, model ECHO550). 14 μL of the diluted cells were then added to the assay plate by Thermo (SN 836 330) CombiDrop and incubated at room temperature for 45 minutes. Then 3 μL of IP1 coupled to dye D2 from the Cisbio IP-One kit were added to the assay plate followed by 3 μL of Lumi4TM-Tb cryptate K from the kit. The plate was further incubated at room for 1 hour before reading on the Envision (Perkin Elmer Model2101) with an HTRF protocol. Activation data for the test compound over a range of concentrations was plotted as percentage activation of the test compound (100%=maximum response). After correcting for background [(sample read-mean of low control)/(mean of high control−mean of low control)](low control is DMSO without any compound), EC50 values were determined. The EC50 is defined as the concentration of test compound which produces 50% of the maximal response and was quantified using the 4 parameter logistic equation to fit the data.

hGPR40 [2] = biological target: T1, hGPR40; assay: FDSS-based intracellular calcium assay; assay type: cell-based; design: 3xFLAG; expressed in transfected cells; details: intracellular Ca2+ response, cells expressing GPR40
Procedure: FDSS-Based Intracellular Calcium Assay
Compounds are dissolved in DMSO and diluted to desired concentrations with assay buffer and added to the cells as 3× solution (20 μL per well). Run fluorescence/luminescence reader FDSS (Hamamatsu) to read intracellular Ca^2+ response.

T1 sequence (O14842 whole entry): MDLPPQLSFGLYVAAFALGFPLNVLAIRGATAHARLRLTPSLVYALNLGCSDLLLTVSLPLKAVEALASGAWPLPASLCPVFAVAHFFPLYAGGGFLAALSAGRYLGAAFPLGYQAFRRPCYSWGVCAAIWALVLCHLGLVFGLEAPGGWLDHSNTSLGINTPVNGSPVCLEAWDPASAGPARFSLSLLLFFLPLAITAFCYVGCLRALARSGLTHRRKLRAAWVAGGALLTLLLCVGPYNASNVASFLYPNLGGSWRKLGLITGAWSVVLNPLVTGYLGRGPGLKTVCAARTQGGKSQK

SMILES | EC50 (hGPR40 [1]) [nM] | EC50 (hGPR40 [2]) [nM]
CCOc1ccc(F)c(N2CC[C@@H](Oc3ccc(N4N=C(c5ccc(C#N)cc5)[C@@H](CC)[C@@H]4CC(=O)O)cc3)[C@H](C)C2)c1 [Example 99, 2-((4S,5S)-3-(4-Cyanophenyl)-1-(4-(((3R,4R)-1-(5-ethoxy-2-fluorophenyl)-3-methylpiperidin-4-yl)oxy)phenyl)-4-ethyl-4,5-dihydro-1H-pyrazol-5-yl)acetic acid] | 20 | 25
COc1cc(F)c(F)c(N2CCC(Oc3ccc(N4N=C(C(F)(F)F)[C@@H](C)[C@@H]4CC(=O)O)cc3)CC2)c1 [Example 16, 2-((4S,5S)-1-(4-((1-(2,3-Difluoro-5-methoxyphenyl)piperidin-4-yl)oxy)phenyl)-4-methyl-3-(trifluoromethyl)-4,5-dihydro-1H-pyrazol-5-yl)acetic acid] | 133 | 273
CCOc1cc(F)c(F)c(N2CCC(Oc3ccc(N4N=C(C(F)(F)F)[C@@H](C)[C@@H]4CC(=O)O)cc3)CC2)c1 [Example 17, 2-((4S,5S)-1-(4-((1-(5-Ethoxy-2,3-difluorophenyl)piperidin-4-yl)oxy)phenyl)-4-methyl-3-(trifluoromethyl)-4,5-dihydro-1H-pyrazol-5-yl)acetic acid] | 294 | 286
Cc1ccc(F)c(N2CCC(Oc3ccc(N4N=C(C(F)(F)F)[C@@H](C)[C@@H]4CC(=O)O)cc3)CC2)c1 [Example 36, 2-((4S,5S)-1-(4-((1-(2-Fluoro-5-methylphenyl)piperidin-4-yl)oxy)phenyl)-4-methyl-3-(trifluoromethyl)-4,5-dihydro-1H-pyrazol-5-yl)acetic acid] | 86 | 440
CCOc1ccc(F)c(N2CCC(Oc3ccc(N4N=C(C(F)(F)F)[C@@H](C)[C@@H]4CC(=O)O)cc3)C(CC(C)C)C2)c1 (single isomer, unassigned) [Example 27 (Isomer 1)] | 90 | 412
CCc1ccc(F)c(N2CCC(Oc3ccc(N4N=C(C(F)(F)F)[C@@H](C)[C@@H]4CC(=O)O)cc3)CC2)c1 [Example 65, 2-((4S,5S)-1-(4-((1-(5-Ethyl-2-fluorophenyl)piperidin-4-yl)oxy)phenyl)-4-methyl-3-(trifluoromethyl)-4,5-dihydro-1H-pyrazol-5-yl)acetic acid] | 297 | 583
[2H]C([2H])([2H])Oc1cc(N2CC[C@@H](Oc3ccc(N4N=C(C(F)(F)F)[C@@H](C)[C@@H]4CC(=O)O)cc3)[C@H](C)C2)c(Cl)cn1 [Example 87, 2-((4S,5S)-1-(4-(((3R,4R)-1-(5-Chloro-2-d3-methoxypyridin-4-yl)-3-methylpiperidin-4-yl)oxy)phenyl)-4-methyl-3-(trifluoromethyl)-4,5-dihydro-1H-pyrazol-5-yl)acetic acid] | 6 | 74
COc1ccc(F)c(N2CCC(Oc3ccc(N4N=C(C(F)(F)F)[C@@H](C)[C@@H]4CC(=O)O)cc3)C(F)C2)c1 (single isomer, unassigned) [Example 57 (Isomer 4)] | 11 | 66
CCOc1ccc(F)c(N2CCC(Oc3ccc(N4N=C(C(F)(F)F)[C@@H](C)[C@@H]4CC(=O)O)cc3)C(CC(C)C)C2)c1 (single isomer, unassigned) [Example 27 (Isomer 2)] | 84 | 34
CC(C)Oc1ccc(F)c(N2CCC(Oc3ccc(N4N=C(C(F)(F)F)[C@@H](C)[C@@H]4CC(=O)O)cc3)C(C)C2)c1 (stereo partly drawn) [Example 12, 2-((4S,5S)-1-(4-((1-(2-Fluoro-5-isopropoxyphenyl)-3-methylpiperidin-4-yl)oxy)phenyl)-4-methyl-3-(trifluoromethyl)-4,5-dihydro-1H-pyrazol-5-yl)acetic acid] | 253 | 311
COc1cc(N2CCC(Oc3ccc(N4N=C(C(F)(F)F)[C@@H](C)[C@@H]4CC(=O)O)cc3)CC2)c(F)cn1 [Example 79, 2-((4S,5S)-1-(4-((1-(5-Fluoro-2-methoxypyridin-4-yl)piperidin-4-yl)oxy)phenyl)-4-methyl-3-(trifluoromethyl)-4,5-dihydro-1H-pyrazol-5-yl)acetic acid] | 94 | 163
CC[C@@H]1C(C(F)(F)F)=NN(c2ccc(OC3CCN(c4cc(OC)ccc4F)CC3)cc2)[C@H]1CC(=O)O (single isomer, unassigned) [Example 88, Isomer 1] | 18 | 78
COc1cccc(N2CCC(Oc3ccc(N4N=C(C(F)(F)F)[C@@H](C)[C@@H]4CC(=O)O)cc3)CC2)c1 [Example 40, 2-((4S,5S)-1-(4-((1-(3-Methoxyphenyl)piperidin-4-yl)oxy)phenyl)-4-methyl-3-(trifluoromethyl)-4,5-dihydro-1H-pyrazol-5-yl)acetic acid] | 107 | 620
COc1ccc(F)c(N2CCC(Oc3ccc(N4N=C(c5ncccn5)C(C)C4CC(=O)O)cc3)CC2)c1 (single isomer, unassigned) [Example 22, Isomer 2, 2-(1-(4-((1-(2-Fluoro-5-methoxyphenyl)piperidin-4-yl)oxy)phenyl)-4-methyl-3-(pyrimidin-2-yl)-4,5-dihydro-1H-pyrazol-5-yl)acetic acid] | – | 5570
Cc1ccc(F)c(N2CCC(Oc3ccc(N4N=C(C(F)(F)F)[C@@H](C)[C@@H]4CC(=O)O)cc3)CC2)n1 [Example 61, 2-((4S,5S)-1-(4-((1-(3-Fluoro-6-methylpyridin-2-yl)piperidin-4-yl)oxy)phenyl)-4-methyl-3-(trifluoromethyl)-4,5-dihydro-1H-pyrazol-5-yl)acetic acid] | – | 366
COc1ccc(F)c(N2CCC(Oc3ccc(N4N=C(C(F)(F)F)[C@@H](C)[C@@H]4CC(=O)O)cc3)C(F)C2)c1 (single isomer, unassigned) [Example 57 (Isomer 3)] | – | 716
CCc1cccc(N2CCC(Oc3ccc(N4N=C(C(F)(F)F)[C@@H](C)[C@@H]4CC(=O)O)cc3)CC2)c1 [Example 71, 2-((4S,5S)-1-(4-((1-(3-Ethylphenyl)piperidin-4-yl)oxy)phenyl)-4-methyl-3-(trifluoromethyl)-4,5-dihydro-1H-pyrazol-5-yl)acetic acid] | 224 | 1180
CC(C)Oc1ccc(F)c(N2CCC(Oc3ccc(N4N=C(C(F)(F)F)[C@@H](C)[C@@H]4CC(=O)O)cc3)CC2)c1 [Example 9, 2-((4S,5S)-1-(4-((1-(2-Fluoro-5-isopropoxyphenyl)piperidin-4-yl)oxy)phenyl)-4-methyl-3-(trifluoromethyl)-4,5-dihydro-1H-pyrazol-5-yl)acetic acid] | – | 374
COc1cc(C)c(N2CCC(Oc3ccc(N4N=C(C(F)(F)F)[C@@H](C)[C@@H]4CC(=O)O)cc3)CC2)c(C)c1 [Example 51, 2-((4S,5S)-1-(4-((1-(4-Methoxy-2,6-dimethylphenyl)piperidin-4-yl)oxy)phenyl)-4-methyl-3-(trifluoromethyl)-4,5-dihydro-1H-pyrazol-5-yl)acetic acid] | – | 3060
Cc1ccccc1N1CCC(Oc2ccc(N3N=C(C(F)(F)F)[C@@H](C)[C@@H]3CC(=O)O)cc2)CC1 [Example 39, 2-((4S,5S)-4-Methyl-1-(4-((1-(o-tolyl)piperidin-4-yl)oxy)phenyl)-3-(trifluoromethyl)-4,5-dihydro-1H-pyrazol-5-yl)acetic acid] | – | 498
